For this test, the target named is α-glucosidase from Saccharomyes cerevisiae (Saccharomyces cerevisiae, UniProt P53341). The test is described as follows: α-Glucosidase inhibition assay (PNPG substrate, OD 405 nm). The format is biochemical. The following applies: for inhibition at 100 µM: read-out: %Inhibition (100 μM); for inhibitory activity against α-glucosidase, in words: at 100 μM; for inhibition at 50 µM: read-out: %Inhibition (50 μM). How it is done:
The α-glucosidase inhibitory effect was assessed using a previously described method with slight modification. 0.2 U of α-glucosidase from Saccharomyes cerevisiae purchased from Sigma-Aldrich (St. Louis, MO, USA) was diluted to 0.1 M phosphate buffer consisting of Na2HPO4 and NaH2PO4 (pH 6.8). The assay was conducted in a 200 μL reaction system containing 148 μL of the buffer, 25 μL of diluted enzyme solution, and 2 μL of DMSO or sample (dissolved in DMSO). After 20 min of incubation in the 96-well plates at 37 °C, 25 μL of 0.4 mM 4-nitrophenyl-[…]-D-glucopyranoside (PNPG, Aladdin, Shanghai, China) was added as a substrate to start the enzymatic reaction. The plate was incubated for an additional 15 min at 37 °C, followed by the measurement of the optical density (OD). The final concentrations of tested compounds were between 0.39 and 100 μM. The OD was measured at an absorbance wavelength of 405 nm using a Microplate Reader (Tecan, Switzerland).

Where [1] appears, read: α-glucosidase, compound at 100 μM.

Where two headings read alike, the source gives them in different places.

The source of these data is publication PMC6627487, “Butenolide Derivatives with α-Glucosidase Inhibitions from the Deep-Sea-Derived Fungus Aspergillus terreus YPGA10” (Marine Drugs, 2019).

Chain of α-glucosidase from Saccharomyes cerevisiae (P53341 whole entry): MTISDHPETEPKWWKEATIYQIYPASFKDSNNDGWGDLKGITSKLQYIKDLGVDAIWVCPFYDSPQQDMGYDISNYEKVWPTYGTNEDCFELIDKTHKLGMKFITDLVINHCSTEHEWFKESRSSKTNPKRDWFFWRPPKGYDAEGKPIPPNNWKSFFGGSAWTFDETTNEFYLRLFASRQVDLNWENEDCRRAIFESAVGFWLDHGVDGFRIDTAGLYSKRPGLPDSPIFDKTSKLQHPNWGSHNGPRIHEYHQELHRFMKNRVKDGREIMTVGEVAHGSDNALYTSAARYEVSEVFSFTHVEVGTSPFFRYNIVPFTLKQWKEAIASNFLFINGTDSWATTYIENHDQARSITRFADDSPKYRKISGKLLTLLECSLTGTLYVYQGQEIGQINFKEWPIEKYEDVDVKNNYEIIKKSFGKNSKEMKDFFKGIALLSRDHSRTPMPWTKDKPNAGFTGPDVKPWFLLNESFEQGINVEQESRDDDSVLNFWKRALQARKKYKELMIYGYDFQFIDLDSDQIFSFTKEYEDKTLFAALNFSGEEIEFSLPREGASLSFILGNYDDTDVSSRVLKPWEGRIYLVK

As usually defined, the inhibition is the change of the read-out against control, counted positive when it falls. For `COC(=O)[C@]1(Cc2ccc3c(c2)C[C@H](C(C)(C)O)O3)OC(=O)C(O)=C1c1ccccc1` [Compound 1, Aspernolide N], the inhibition at 100 µM under setting [1] turned out to be 18.6%. On to `CCOC(=O)[C@]1(Cc2ccc3c(c2)C[C@H](C(C)(C)O)O3)OC(=O)C(O)=C1c1ccc(O)cc1` [Compound 2, Aspernolide O], for which, under setting [1], the inhibition at 100 µM was determined as 23.2%. Regarding `CCOC(=O)[C@]1(Cc2ccc3c(c2)CC(O)C(C)(C)O3)OC(=O)C(O)=C1c1ccc(O)cc1` (stereo partly shown) [Compound 3, Aspernolide P], the inhibition at 100 µM under setting [1] was determined as 26.4%. As to `COC(=O)[C@]1(Cc2ccc3c(c2)C[C@H](C(C)(C)O)O3)OC(=O)C(O)=C1c1ccc(O)cc1` [Compound 4, butyrolactone IV], the inhibition at 100 µM worked out at 37.3%.

For the compound `COC(=O)[C@]1(Cc2ccc3c(c2)C[C@H](O)C(C)(C)O3)OC(=O)C(O)=C1c1ccc(O)cc1` [Compound 5, butyrolactone V], the “inhibitory activity against α-glucosidase, in words” value is “negligible inhibitory activity”. For the same compound, the inhibition at 100 µM under setting [1] amounted to 21.6%. On to `COC(=O)[C@]1(Cc2ccc(O)c(CC=C(C)C)c2)OC(=O)C(O)=C1c1ccc(O)cc1` [Compound 6, butyrolactone I], for which the inhibition at 50 µM is 89.4% and the inhibition at 100 µM was 100%. On to `CCOC(=O)[C@]1(Cc2ccc(O)c(CC=C(C)C)c2)OC(=O)C(O)=C1c1ccc(O)cc1` [Compound 7, butyrolactone VII], for which the inhibition at 50 µM stood at 98.7% and the inhibition at 100 µM amounted to 100%. As for `COC(=O)[C@]1(Cc2ccc3c(c2)CCC(C)(C)O3)OC(=O)C(O)=C1c1ccc(O)cc1` [Compound 8, aspernolide A], the “inhibitory activity against α-glucosidase, in words” value is listed as “significant inhibition” and the inhibition at 100 µM stood at 89.2%.

With `COC(=O)[C@]1(Cc2ccc3c(c2)C=CC(C)(C)O3)OC(=O)C(O)=C1c1ccc(O)cc1` [Compound 9, aspernolide E], the inhibition at 100 µM under setting [1] amounted to 90.4%.
